{"source": "patent US12133913B2", "about": "“Methods of treating overactive bladder using trospium” (TARIS BIOMEDICAL LLC, priority 2018, dated 2024)", "origin": "cited, not measured here", "key": {"[1]": {"conditions": "in vivo"}, "[2]": {"system": "oral naïve overactive bladder patients"}}, "note": "Structures can show the parent of a compound that is named as a salt. Where two headings read alike, the source gives them in different places.", "data": [{"smiles": "O=C(OC1CC2CCC(C1)[N+]21CCCC1)C(O)(c1ccccc1)c1ccccc1.[Cl-]", "note": "(stereo not drawn) [oral trospium, 3-(2-hydroxy-2,2-diphenylacetoxy)spiro[bicyclo[3.2.1]octane-8,1′-pyrrolidin]-1′-ium chloride]", "values": [{"measurement": "Predicted urine levels achieved with oral trospium", "setting": "[1]", "result": "0.5 to 1", "unit": "µg/mL"}]}, {"smiles": "O=C(O[C@H]1CN2CCC1CC2)N1CCc2ccccc2[C@@H]1c1ccccc1", "note": "[VESIcare®, solifenacin succinate]", "values": [{"measurement": "Reduction in average daily incontinence episodes from baseline", "setting": "[2]; oral treatment, oral naïve patients", "result": 1.4}]}, {"smiles": "Cc1ccc(O)c([C@H](CCN(C(C)C)C(C)C)c2ccccc2)c1", "note": "[Detrol® LA, tolterodine tartrate]", "values": [{"measurement": "Reduction in average daily incontinence episodes from baseline", "setting": "[2]; in vivo, po", "result": 0.8}]}]}
